*1 amine or outer side, *2 acyl side, *3 side chain or, on linkers, in order; H or OH if unused. Where a SMILES comes first, the peptide text is derived from it. Bridges are numbered along the chain shown (N, C = ends). Roman numbers before positions name the chains, in order. Where no end group is shown, it is not given here. The star is where a group is joined. TBMB = c1c(C[*:1])cc(C[*:3])cc1C[*:2]; mXylylene = c1cc(C[*:1])cc(C[*:2])c1; Bn = c1ccc(C*)cc1
B3: DegP^S210A (enzyme, E. coli, UniProt P0C0V0 27-474, looked up)
chain: AETSSATTAQQMPSLAPMLEKVMPSVVSINVEGSTTVNTPRMPRNFQQFFGDDSPFCQEGSPFQSSPFCQGGQGGNGGGQQQKFMALGSGVIIDADKGYVVTNNHVVDNATVIKVQLSDGRKFDAKMVGKDPRSDIALIQIQNPKNLTAIKMADSDALRVGDYTVAIGNPFGLGETVTSGIVSALGRSGLNAENYENFIQTDAAINRGNAGGALVNLNGELIGINTAILAPDGGNIGIGFAIPSNMVKNLTSQMVEYGQVKRGELGIMGTELNSELAKAMKVDAQRGAFVSQVLPNSSAAKAGIKAGDVITSLNGKPISSFAALRAQVGTMPVGSKLTLGLLRDGKQVNVNLELQQSSQNQVDSSSIFNGIEGAEMSNKGKDQGVVVNNVKTGTPAAQIGLKKGDVIIGANQQAVKNIAELRKVLDSKPSVLALNIQRGDSTIYLLMQ
notes: periplasmic protease DegP (HtrA family) of E. coli, active-site mutant S210A; In the crystals it resembles the dodecameric cage of 3OTP (two trimers in the asymmetric unit); also called DegP active-site mutant

Legend:
DegP^S210A [1] = molecular target: T1, DegP^S210A (Escherichia coli, UniProt P0C0V0, C83S/C95S/N322C/S236A); assay: FRET assay of DegP cage assembly; format: biochemical
T1 construct: pET22b-degP(full length; C57S/C69S/N296C/S210A)_6His; 6His (C); made in house; host or cells: E. coli (inferred from the pET plasmid)
Procedure: Fluorescence resonance energy transfer (FRET) assay was performed as previously described[14],[22]. Equimolar amounts of fluorescence donor- and acceptor-labeled DegP^S210A (total 0.1, 1 or 3 μM) was mixed in a buffer containing 50 mM sodium phosphate (pH 8) and 100 mM NaCl. Two-fold serial dilutions of activators were added to the DegP mixtures. Alexa Fluor 555 C2-maleinide and 647 C2-maleinide (life technologies) were used as fluorescence dyes. Cage assembly of DegP was monitored by increased FRET ratio using the micro-plate reader (excitation 520 nm, emission 570 or 670 nm, Infinite M200pro, Tecan). Assays were performed in triplicates.

DegP^S210A [2] = molecular target: T2, DegP^S210A (Escherichia coli, UniProt P0C0V0, S236A); assay: Isothermal titration calorimetry; format: binding; conditions: ITC; for Kd: Kd (M); for binding stoichiometry N: 298 K, single binding site model, DMB_CYYKI 0–2 molar ratio
T2 construct: pET22b-degP(full length; S210A)_6His; 6His (C); made in house
Procedure: ITC experiments were performed using Affinity ITC instruments (TA Instruments, New Castle, DE, USA) at 298 K. DegP^S210A mutant (18.10 μM for 0–2 molar ratio and 109.33 μM for 0–0.4 molar ratio), which were prepared in a buffer containing 5 mM phosphate (pH 8.0) were degassed at 295 K prior to measurements. Using a micro-syringe, 2.5 μL of DMB_CYYKI (300 μM) was added at intervals of 200 s to the DegP solution in the cell with gentle stirring. As for other ligands, 2.5 μL of MMB_CYYKI (453 μM), TMB_CYYKI (218.46 μM) or 18–58 substrate peptide (80 μM) was added at intervals of 200 s to the DegP solution (27.33 μM, 37.45 μM, and 20 μM, respectively). Data were fitted to the single binding site model. In experiments with 0–2 and 0–2.6 molar ratio of DMB_CYYKI and MMB_CYYKI, respectively, the data with 0–0.3 molar ratio were excluded for the fitting.

E. coli imp4213 = assay: microbe, parasite or virus in culture; format: cell-based, Escherichia coli
Procedure: The susceptibility of E. coli to activators was analyzed by determining the MICs. Two-fold serial dilutions of activators in LB broth were added to bacteria (OD600 = 0.1) in 96-well plates. Plates were incubated with shaking at 30 or 42 °C. After 12 h of incubation, the MIC was defined as the lowest concentration of the activator to inhibit the growth of bacteria by using a micro-plate reader (Absorbance 600 nm, Infinite M200pro, Tecan). The assay was performed in triplicates.

E.coli imp4213 strain = format: cell-based, Escherichia coli; conditions: 20 µg/ml alone; 12 h
Procedure: Time-kill experiment was performed by counting the viable bacteria at each time point. The E.coli imp4213 strain was cultured with streptomycin overnight and diluted 1:100 in fresh LB broth. When the OD600 value became 0.01, the activator was added at 2x MIC. The sample was incubated with shaking (180 rpm) at 30 °C or 42 °C, and aliquots were taken after 0, 1, 2, 4, 6, 8, 10, or 12 h. These aliquots were serially diluted (ten-fold) and plated on LB agar plates for colony counts. Experiments were performed in triplicates. The kill curves were plotted with the CFU/mL against time.
Experiments with cells in the stationary phase, however, were performed without dilution of the overnight culture.

DegP^WT (E. coli) = molecular target: T3, DegP^WT (E. coli) (UniProt P0C0V0)
T3 sequence: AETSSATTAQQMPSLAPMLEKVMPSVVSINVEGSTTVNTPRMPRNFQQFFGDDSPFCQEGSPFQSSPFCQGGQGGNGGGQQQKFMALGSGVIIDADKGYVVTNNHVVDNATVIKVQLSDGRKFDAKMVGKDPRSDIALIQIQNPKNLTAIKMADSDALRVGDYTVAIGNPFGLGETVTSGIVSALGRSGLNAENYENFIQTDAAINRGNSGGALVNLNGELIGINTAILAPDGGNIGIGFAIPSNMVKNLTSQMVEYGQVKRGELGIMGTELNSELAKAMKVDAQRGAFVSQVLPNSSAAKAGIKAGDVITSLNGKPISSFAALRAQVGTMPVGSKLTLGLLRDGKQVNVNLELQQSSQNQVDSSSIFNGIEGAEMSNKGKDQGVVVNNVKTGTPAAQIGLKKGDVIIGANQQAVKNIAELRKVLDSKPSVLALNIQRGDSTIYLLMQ

DegP^S210A [3] = molecular target: T4, DegP^S210A (E. coli, UniProt P0C0V0 27-474, S210A); assay: ITC
T4 sequence: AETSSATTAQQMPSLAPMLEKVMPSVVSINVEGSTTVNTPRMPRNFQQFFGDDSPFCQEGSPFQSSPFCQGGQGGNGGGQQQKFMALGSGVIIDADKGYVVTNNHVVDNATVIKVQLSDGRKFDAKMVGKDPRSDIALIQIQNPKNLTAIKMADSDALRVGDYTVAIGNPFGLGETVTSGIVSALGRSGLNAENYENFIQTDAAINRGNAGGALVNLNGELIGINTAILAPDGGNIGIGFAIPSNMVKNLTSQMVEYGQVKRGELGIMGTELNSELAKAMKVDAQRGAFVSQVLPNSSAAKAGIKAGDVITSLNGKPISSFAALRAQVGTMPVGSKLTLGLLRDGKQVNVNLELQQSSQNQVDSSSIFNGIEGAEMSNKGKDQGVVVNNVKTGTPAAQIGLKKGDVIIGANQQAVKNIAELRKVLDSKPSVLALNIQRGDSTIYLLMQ

DegP^S210A (E. coli) = DegP^S210A (E. coli) (UniProt P0C0V0); assay: ITC; 298 K, 5 mM phosphate pH 8.0; compound or peptide injected into DegP^S210A in the cell; single binding site model; for DMB_CYYKI (0–2 molar ratio) and MMB_CYYKI (0–2.6) the data at 0–0.3 molar ratio were excluded from the fit
DegP^S210A [4] = molecular target: B3; assay: as above; conditions: both partners purified
[5] = molecular target: the molecule itself; assay: crystal structure; DegP^S210A (198 µM) incubated with TMB_CYYKI (297 µM) in 5 mM phosphate pH 8.0 for 1 h at 295 K; hanging drop, PEG3350 10%, tacsimate 0.1 M pH 3.4; molecular replacement with 3OTP
[6] = model Independent, DMB_CYYKI 0-2 molar ratio

T1 sequence (P0C0V0 27-474 C83S/C95S/S236A/N322C): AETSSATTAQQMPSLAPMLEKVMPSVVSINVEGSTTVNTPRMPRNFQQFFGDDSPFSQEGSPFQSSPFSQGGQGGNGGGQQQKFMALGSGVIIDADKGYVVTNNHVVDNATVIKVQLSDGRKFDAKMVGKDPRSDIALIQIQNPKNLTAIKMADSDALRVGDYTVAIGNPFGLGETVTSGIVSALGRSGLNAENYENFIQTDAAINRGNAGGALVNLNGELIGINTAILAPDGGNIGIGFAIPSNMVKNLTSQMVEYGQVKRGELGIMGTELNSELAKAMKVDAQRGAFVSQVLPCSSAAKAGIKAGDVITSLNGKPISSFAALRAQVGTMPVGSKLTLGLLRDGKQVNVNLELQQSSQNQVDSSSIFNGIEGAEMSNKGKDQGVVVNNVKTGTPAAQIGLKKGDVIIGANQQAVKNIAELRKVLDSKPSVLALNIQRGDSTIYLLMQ

Molecule: CC[C@H](C)[C@H](NC(=O)[C@H](CCCCN)NC(=O)[C@H](Cc1ccc(O)cc1)NC(=O)[C@H](Cc1ccc(O)cc1)NC(=O)[C@@H](N)CSCc1cccc(CSC[C@H](N)C(=O)N[C@@H](Cc2ccc(O)cc2)C(=O)N[C@@H](Cc2ccc(O)cc2)C(=O)N[C@@H](CCCCN)C(=O)N[C@H](C(=O)O)[C@@H](C)CC)c1)C(=O)O [DMB_CYYKI] (I: H-CYYKI-OH / II: H-CYYKI-OH; linker I:1-II:1 via mXylylene)
- EC50 (DegP^S210A [1]): 1.1 µM
- Kd (DegP^S210A [2]; model Independent, 0-0.4 molar ratio): 4.62e-07 M
- Kd (DegP^S210A [2]; [6]): 2.39e-07 M

Molecule: CC[C@H](C)[C@H](NC(=O)[C@H](CCCCN)NC(=O)[C@H](Cc1ccc(O)cc1)NC(=O)[C@H](Cc1ccc(O)cc1)NC(=O)[C@@H](N)CSCc1ccccc1)C(=O)O [MMB_CYYKI] (H-C(Bn)YYKI-OH)
- EC50 (DegP^S210A [1]): 6.8 µM
- Kd (DegP^S210A [2]; [6]): 6.32e-07 M

Molecule: CC[C@H](C)[C@H](NC(=O)[C@H](CCCCN)NC(=O)[C@H](Cc1ccc(O)cc1)NC(=O)[C@H](Cc1ccc(O)cc1)NC(=O)[C@@H](N)CSCc1cc(CSC[C@H](N)C(=O)N[C@@H](Cc2ccc(O)cc2)C(=O)N[C@@H](Cc2ccc(O)cc2)C(=O)N[C@@H](CCCCN)C(=O)N[C@H](C(=O)O)[C@@H](C)CC)cc(CSC[C@H](N)C(=O)N[C@@H](Cc2ccc(O)cc2)C(=O)N[C@@H](Cc2ccc(O)cc2)C(=O)N[C@@H](CCCCN)C(=O)N[C@H](C(=O)O)[C@@H](C)CC)c1)C(=O)O [TMB_CYYKI] (I: H-CYYKI-OH / II: H-CYYKI-OH / III: H-CYYKI-OH; linker I:1-II:1-III:1 via TBMB)
- EC50 (DegP^S210A [1]): 1.7 µM
- MIC (E. coli imp4213; imp4213, Fig. 3a and Supplementary Fig. 6b (30 °C and 42 °C), 12 h, LB): 80 µM
- Kd (DegP^S210A [2]; [6]): 2.35e-07 M

Molecule: O=C(N[C@H](CO)[C@H](O)c1ccc([N+](=O)[O-])cc1)C(Cl)Cl [chloramphenicol, reference compound]
- MIC (E. coli imp4213; Escherichia coli, IMP4213): 2 mg/L
- number of viable cells (E.coli imp4213 strain): roughly at the same level

Molecule: CO[C@H]1/C=C/O[C@@]2(C)Oc3c(C)c(O)c4c(O)c(c(/C=N/N5CCN(C)CC5)c(O)c4c3C2=O)NC(=O)/C(C)=C\C=C\[C@H](C)[C@H](O)[C@@H](C)[C@@H](O)[C@@H](C)[C@H](OC(C)=O)[C@@H]1C [rifampicin, reference compound]
- MIC (E. coli imp4213; Escherichia coli, IMP4213): 0.008 mg/L

Molecule: CN(C)[C@@H]1C(O)=C(C(N)=O)C(=O)[C@@]2(O)C(O)=C3C(=O)c4c(O)cccc4[C@@](C)(O)[C@H]3C[C@@H]12 [tetracycline, reference compound]
- MIC (E. coli imp4213; Escherichia coli, IMP4213): 1 mg/L

Molecule: DNYRGYSLGNWVSAAKFESNFNTQATNRNTDGSTDYGILQI [18–58, reference compound]
- binding stoichiometry N (DegP^S210A [2]): 0.47
- binding stoichiometry N (DegP^S210A [2]; listed as 18-58): 0.473
- ΔH (DegP^S210A [2]; [6]): -18.41 kJ/mol

B1: TMB_CKYRKL (peptide)
peptide: CKYRKL
modifications: also: three arms joined via TMB (trimer), linker at 1 via TMB, other end not in the chain
- concentration of compound at maximal activation of reporter peptide (100 µM) cleavage by DegP; activation followed by inhibition at higher concentrations (DegP^WT (E. coli)): 100 µM

Molecule: GTGDNYRGYSLGNWVSAAKFESNFNTQATNRNTDGSTDYGILQI [18–58 substrate peptide]
- Kd (DegP^S210A [3]): 0.1 µM
- stoichiometry N (DegP^S210A (E. coli)): 0.47

B2: MMB_CYYKI (peptide)
peptide: CYYKI
modifications: not fully specified (residue 1); printed as MMB_CYYKI
notes: also called compound with one CYYKI arm; one-arm compound; source: synthetic peptide (SPPS), reacted with benzyl bromide
- Kd (DegP^S210A [3]): 0.63 µM
- stoichiometry N (DegP^S210A [4]): 1.11

Molecule: B3
- binding result [5]: binds
